Results: the supplement of paper PMC10307832

Columns and labels:
Assay in all cases: relative viability (nuclei count vs DMSO), 5 days (fraction); higher = more cells survive
NCI-H2023 = system: NCI-H2023
In short: (§1)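 Relative viability was taken as the ratio of nuclei in treated wells to nuclei in vehicle wells. Lung cancer cell lines in 1536-well plates received compounds by pin tool one day after seeding, either one drug alone or a fixed anchor-drug dose plus five library-drug doses (not always all listed) in √10 steps. Nuclei were counted on 4× images after 5 days of treatment, and values are medians of duplicate plates.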

HCC-827 = system: HCC-827
In short: as §1

NCI-H727 = system: NCI-H727
In short: as §1

LXF-289 = system: LXF-289
In short: as §1

NCI-H1650 = system: NCI-H1650
In short: as §1

NCI-H2087 = system: NCI-H2087
In short: as §1

CAL-12T = system: CAL-12T
In short: as §1

NCI-H647 = system: NCI-H647
In short: as §1

RERF-LC-KJ = system: RERF-LC-KJ
In short: as §1

NCI-H1355 = system: NCI-H1355
In short: as §1

BEN = system: BEN
In short: as §1

NCI-H1395 = system: NCI-H1395
In short: as §1

NCI-H322M = system: NCI-H322M
In short: as §1

NCI-H1793 = system: NCI-H1793
In short: as §1

NCI-H1437 = system: NCI-H1437
In short: as §1

LCLC-97TM1 = system: LCLC-97TM1
In short: as §1

NCI-H3122 = system: NCI-H3122
In short: as §1

HOP-62 = system: HOP-62
In short: as §1

HCC-44 = system: HCC-44
In short: as §1

NCI-H2405 = system: NCI-H2405
In short: as §1

201T = system: 201T
In short: as §1

SK-LU-1 = system: SK-LU-1
In short: as §1

NCI-H2228 = system: NCI-H2228
In short: as §1

COc1cc(N2CCC(C(N)=O)CC2)ccc1Nc1nc(N)c(Cl)c(Nc2ccccc2S(=O)(=O)C(C)C)n1 [HG-5-88-01] + CC1(C)CCC(c2ccc(Cl)cc2)=C(CN2CCN(c3ccc(C(=O)NS(=O)(=O)c4ccc(N[C@H](CCN5CCOCC5)CSc5ccccc5)c(S(=O)(=O)C(F)(F)F)c4)cc3)CC2)C1 [Navitoclax] (partner 0.5 µM)
relative viability (NCI-H2023; first compound 0.04 µM): 1.01 | relative viability (NCI-H2023; first compound 0.1265 µM): 0.94 | relative viability (NCI-H2023; first compound 0.4 µM): 0.934 | relative viability (NCI-H2023; first compound 1.265 µM): 0.787 | relative viability (NCI-H2023; first compound 4 µM): 0.804 | relative viability (HCC-827; first compound 0.04 µM): 0.997 | relative viability (HCC-827; first compound 0.1265 µM): 1.04 | relative viability (HCC-827; first compound 0.4 µM): 1.03 | relative viability (HCC-827; first compound 1.265 µM): 1.02 | relative viability (HCC-827; first compound 4 µM): 0.723 | relative viability (NCI-H727; first compound 0.04 µM): 0.532 | relative viability (NCI-H727; first compound 0.1265 µM): 0.416 | relative viability (NCI-H727; first compound 0.4 µM): 0.469 | relative viability (NCI-H727; first compound 1.265 µM): 0.224 | relative viability (NCI-H727; first compound 4 µM): 0.0929 | relative viability (LXF-289; first compound 0.04 µM): 0.937 | relative viability (LXF-289; first compound 0.1265 µM): 0.979 | relative viability (LXF-289; first compound 0.4 µM): 0.972 | relative viability (LXF-289; first compound 1.265 µM): 1.01 | relative viability (LXF-289; first compound 4 µM): 1.02 | relative viability (NCI-H1650; first compound 0.04 µM): 1.54 | relative viability (NCI-H1650; first compound 0.1265 µM): 1.32 | relative viability (NCI-H1650; first compound 0.4 µM): 1.26 | relative viability (NCI-H1650; first compound 1.265 µM): 0.918 | relative viability (NCI-H1650; first compound 4 µM): 1.07 | relative viability (NCI-H2087; first compound 0.04 µM): 0.902 | relative viability (NCI-H2087; first compound 0.1265 µM): 1.06 | relative viability (NCI-H2087; first compound 0.4 µM): 1.03 | relative viability (NCI-H2087; first compound 1.265 µM): 0.971 | relative viability (NCI-H2087; first compound 4 µM): 0.943 | relative viability (CAL-12T; first compound 0.04 µM): 1.26 | relative viability (CAL-12T; first compound 0.1265 µM): 1.15 | relative viability (CAL-12T; first compound 0.4 µM): 1.18 | relative viability (CAL-12T; first compound 1.265 µM): 1.14 | relative viability (CAL-12T; first compound 4 µM): 1.02 | relative viability (NCI-H647; first compound 0.04 µM): 1.19 | relative viability (NCI-H647; first compound 0.1265 µM): 1.26 | relative viability (NCI-H647; first compound 0.4 µM): 1.24 | relative viability (NCI-H647; first compound 1.265 µM): 1.27 | relative viability (NCI-H647; first compound 4 µM): 1.13 | relative viability (RERF-LC-KJ; first compound 0.04 µM): 1.05 | relative viability (RERF-LC-KJ; first compound 0.1265 µM): 0.846 | relative viability (RERF-LC-KJ; first compound 0.4 µM): 0.954 | relative viability (RERF-LC-KJ; first compound 1.265 µM): 0.941 | relative viability (RERF-LC-KJ; first compound 4 µM): 0.5 | relative viability (NCI-H1355; first compound 0.04 µM): 1.01 | relative viability (NCI-H1355; first compound 0.1265 µM): 1.08 | relative viability (NCI-H1355; first compound 0.4 µM): 0.959 | relative viability (NCI-H1355; first compound 1.265 µM): 0.789 | relative viability (NCI-H1355; first compound 4 µM): 0.841 | relative viability (BEN; first compound 0.04 µM): 0.0887 | relative viability (BEN; first compound 0.1265 µM): 0.0551 | relative viability (BEN; first compound 0.4 µM): 0.0596 | relative viability (BEN; first compound 1.265 µM): 0.0568 | relative viability (BEN; first compound 4 µM): 0.0605 | relative viability (NCI-H1395; first compound 0.04 µM): 1.08 | relative viability (NCI-H1395; first compound 0.1265 µM): 1.18 | relative viability (NCI-H1395; first compound 0.4 µM): 1.25 | relative viability (NCI-H1395; first compound 1.265 µM): 1.03 | relative viability (NCI-H1395; first compound 4 µM): 1.09 | relative viability (NCI-H322M; first compound 0.04 µM): 1.16 | relative viability (NCI-H322M; first compound 0.1265 µM): 1.21 | relative viability (NCI-H322M; first compound 0.4 µM): 1.18 | relative viability (NCI-H322M; first compound 1.265 µM): 0.907 | relative viability (NCI-H322M; first compound 4 µM): 1.26 | relative viability (NCI-H1793; first compound 0.1265 µM): 0.409 | relative viability (NCI-H1793; first compound 0.4 µM): 0.473 | relative viability (NCI-H1793; first compound 1.265 µM): 0.296 | relative viability (NCI-H1793; first compound 4 µM): 0.438 | relative viability (NCI-H1437; first compound 0.04 µM): 1.1 | relative viability (NCI-H1437; first compound 0.1265 µM): 1.11 | relative viability (NCI-H1437; first compound 0.4 µM): 1.05 | relative viability (NCI-H1437; first compound 1.265 µM): 1.04 | relative viability (NCI-H1437; first compound 4 µM): 1.02 | relative viability (LCLC-97TM1; first compound 0.04 µM): 0.374 | relative viability (LCLC-97TM1; first compound 0.1265 µM): 0.689 | relative viability (LCLC-97TM1; first compound 0.4 µM): 0.347 | relative viability (LCLC-97TM1; first compound 1.265 µM): 0.296 | relative viability (LCLC-97TM1; first compound 4 µM): 0.321 | relative viability (NCI-H3122; first compound 0.04 µM): 0.905 | relative viability (NCI-H3122; first compound 0.1265 µM): 0.611 | relative viability (NCI-H3122; first compound 0.4 µM): 0.444 | relative viability (NCI-H3122; first compound 1.265 µM): 0.198 | relative viability (NCI-H3122; first compound 4 µM): 0.255 | relative viability (HOP-62; first compound 0.04 µM): 0.987 | relative viability (HOP-62; first compound 0.1265 µM): 0.948 | relative viability (HOP-62; first compound 0.4 µM): 0.986 | relative viability (HOP-62; first compound 1.265 µM): 0.919 | relative viability (HOP-62; first compound 4 µM): 1.01 | relative viability (HCC-44; first compound 0.04 µM): 1.07 | relative viability (HCC-44; first compound 0.1265 µM): 1.03 | relative viability (HCC-44; first compound 0.4 µM): 0.77 | relative viability (HCC-44; first compound 1.265 µM): 0.922 | relative viability (HCC-44; first compound 4 µM): 0.846 | relative viability (NCI-H2405; first compound 0.04 µM): 0.99 | relative viability (NCI-H2405; first compound 0.1265 µM): 1.03 | relative viability (NCI-H2405; first compound 0.4 µM): 0.825 | relative viability (NCI-H2405; first compound 1.265 µM): 0.319 | relative viability (NCI-H2405; first compound 4 µM): 0.784 | relative viability (201T; first compound 0.04 µM): 1.22 | relative viability (201T; first compound 0.1265 µM): 1.22 | relative viability (201T; first compound 0.4 µM): 1.28 | relative viability (201T; first compound 1.265 µM): 1.18 | relative viability (201T; first compound 4 µM): 1.17 | relative viability (SK-LU-1; first compound 0.04 µM): 0.997 | relative viability (SK-LU-1; first compound 0.1265 µM): 0.99 | relative viability (SK-LU-1; first compound 0.4 µM): 0.791 | relative viability (SK-LU-1; first compound 1.265 µM): 0.98 | relative viability (SK-LU-1; first compound 4 µM): 0.791 | relative viability (NCI-H2228; first compound 0.04 µM): 0.65 | relative viability (NCI-H2228; first compound 0.1265 µM): 0.295 | relative viability (NCI-H2228; first compound 0.4 µM): 0.485 | relative viability (NCI-H2228; first compound 1.265 µM): 0.417 | relative viability (NCI-H2228; first compound 4 µM): 0.27
